# Experimental data reported in patent publication US20250263441A1 (Metanovas Biotech Inc., priority 2024, published 2025).
# “And” between values parts separate entries of the source, which are not always exact repeats. Equal values may be shown once.
# Columns and labels:
# Format in all cases: cell-based
# Streptococcus mutans = test: Inhibitory effect of AMP-33 on Streptococcus mutans; settings: 5 and 10 μg/mL, 16 hours
# Description: (1) Streptococcus mutans was cultured to the logarithmic phase, then 5 mL of the bacterial solution was centrifuged at 5,000 g for 10 minutes. The organisms were resuspended in Brain-Heart Infusion (BHI) medium, and the concentration of the bacterial solution was adjusted to approximately 2×10^5 CFU/mL using pre-configured McClure's turbidimetric tubes.
# (2) Streptococcus mutans was cultured in a microtiter plate (96 wells), and 50 μL of different AMP33 peptides were added (at concentrations of 5 and 10 μg/mL). Then, 100 μL of diluted Streptococcus mutans bacterial fluid was added, followed by 50 μL of BHI medium, resulting in a final concentration of 1×10^5 CFU/mL.
# (3) A blank control was provided with equal amounts of medium solution and bacterial solution as that of the experimental group, with at least 3 replicates for each treatment group.
# (4) The 96-well plate was placed in a bacterial incubator at 37° C. and incubated at 150 rpm for 16 hours.
# Candida albicans = test: Minimum inhibitory concentration on Candida albicans (liquid culture); settings: 37° C., 24 to 48 hours
# Description: Primary screening of liquid culture: the peptides in Examples 1 to 2 were dissolved in pure water to a concentration of 100 μg/mL. Using a micropipette, 10 μL of the peptides were added to a new 96-well plate in order from left to right, starting from the second compartment. Positive and negative controls were established for use. The 96-well plates were arranged vertically, and the peptide concentrations of the control groups were the same as those of the antimicrobial peptide. The control groups consisted of: pure water and bacteria, antimicrobial peptide FK13 and bacteria, and antimicrobial peptide HPA3NT3 and bacteria. An aseptic medium was used. The amino acid sequence of FK13 is […] (SEQ ID NO: 5), and the amino acid sequence of HPA3NT3 is […] (SEQ ID NO: 6).
# If a 96-deep-well plate was used to culture bacteria, an additional 100 μL of sterile medium was added to all wells.
# Candida albicans was inoculated in LB medium with normal oxygen concentration (21%) for 48 hours. […] clones were picked and incubated in LB medium at 37° C. with normal oxygen concentration (21%) for 48 hours. The bacterial concentration was measured and diluted to 107 CFU/mL with culture medium for use.
# The prepared fresh bacterial suspension was diluted to 105 CFU/mL and added to the 96-well plate with 90 μL of the bacterial suspension per well, and incubated at 37° C. with normal oxygen concentration for 24 to 48 hours. The absorbance at 630 nm was measured with a microplate reader, and the degree of turbidity was observed by the naked eye.
# (iv) Repetition of Operations: The Operations in (iii) were Repeated Twice, and the Decision to Perform a Third Repetition was Based on the Reproducibility of the Experiment.
# [1] = system: rabbit blood erythrocytes; test: Measurement of hemolytic concentration; settings: for Hemolysis rate: 37° C., 1 hour, replicate wells
# Description: 4 mL of 2% rabbit blood erythrocytes were washed twice with 4 mL PBS and centrifuged at 3000 rpm for 5 minutes. The supernatant was discarded, and the rabbit blood erythrocytes were resuspended in 4 mL PBS. 160 μg of the peptides from Examples 1 to 2, FK13, and HPA3NT3 were independently dissolved in 1 mL PBS buffer to prepare the peptide mother solutions with a concentration of 160 μg/mL. Subsequently, the peptide mother solutions were diluted with PBS buffer to concentrations of 80 μg/mL, 64 μg/mL, 32 μg/mL, 16 μg/mL, and 8 μg/mL. 100 μL of the 2% rabbit blood erythrocytes and 100 μL of different concentrations of peptides (80 μg/mL, 64 μg/mL, 32 μg/mL, 16 μg/mL, 8 μg/mL) were added to each well of a 96-well plate. In the negative control, 100 μL of PBS buffer was added, while in the positive control, 100 μL of 0.1% (w/v) Triton X-100 was added. Three replicate wells were set up for each group and incubated at 37° C. for 1 hour. The 96-well plate was then removed, centrifuged at 3000 rpm for 5 minutes, and 100 μL of supernatant was aspirated and transferred to a new 96-well plate. The absorbance was measured at 540 nm using an enzyme meter. Hemolysis rate (%)=((Absorbancesample−Absorbancenegative)/(Absorbancepositive−Absorbancenegative))*100%.
# Helicobacter pylori = test: Inhibitory effect of AMP-33 on Helicobacter pylori; settings: 5 and 10 μg/mL, 48 hours
# Description: (1) Helicobacter pylori was cultured to the logarithmic phase. Then, 4.5 mL of the bacterial solution was centrifuged at 5,000 g for 6 minutes, and the organisms were resuspended in Wilkins-Chalgren medium. The concentration of the bacterial solution was adjusted to approximately 2× 10^5 CFU/mL using pre-configured McClure's turbidimetric tubes.
# (2) Helicobacter pylori was cultured in a microtiter plate (96 wells), and 50 μL of different AMP33 peptides were added (at concentrations of 5 and 10 μg/mL). Next, 100 μL of diluted Helicobacter pylori bacterial fluid was added, followed by 50 μL of medium until the final concentration reached 1×10^5 CFU/mL.
# (3) A blank control was provided with equal amounts of medium solution and bacterial solution as in the experimental group, with at least 3 replicates for each treatment group.
# (4) The 96-well plate was placed in a bacterial incubator at 37° C. and incubated at 150 rpm for 48 hours.
# [2] = system: Mouse macrophage RAW264.7 cells; test: RT-qPCR of inflammation markers in LPS-stimulated RAW264.7 cells; settings: LPS 10 ng/ml, 24 hours; repeated experiments
# Description: (1) Mouse macrophage RAW264.7 cells were cultured in DMEM supplemented with 10% fetal bovine serum (FBS) and 1% penicillin and streptomycin (P/S) at 37° C. in a 5% CO2 incubator.
# (2) 5×10^4 mouse-derived RAW264.7 macrophages were placed in 12-well cell culture plates and cultured for 24 hours. Then, 20 μL of PBS (negative control), Dexamethasone (positive control), and the test peptide were added to the wells for incubation for 2 hours. Afterward, 10 ng/ml of lipopolysaccharide (LPS) was mixed with RAW264.7 cells and incubated for 24 hours.
# (4) The cells were collected, and total RNA was isolated and extracted, reverse transcribed, and subjected to RT-qPCR to detect inflammation markers, including TNF-α, IL-1β, IL-6/10, CCL2, IFN-γ, iNOS, and GAPDH.
# 3. After treating RAW264.7 cells with AMP-33, RT-qPCR was used to detect the levels of IL-6 and IL-1ß mRNA.
substance,measurement,setting,value
Example 2: LSKWLKKLGKLLAG (designated as AMP33),inhibition rate of Streptococcus mutans,Streptococcus mutans,approximately 100%
same,Minimum inhibitory concentration on Candida albicans,Candida albicans,25 µg/mL
same,Hemolysis rate,[1]; 8 μg/mL,3.6% and 7.9% and 23%
same,Hemolysis rate,[1]; 16 μg/mL,2.6% and 1.7% and −0.4%
same,Hemolysis rate,[1]; 32 μg/mL,0.6% and 4.6% and 3.3%
same,Hemolysis rate,[1]; 64 μg/mL,0.7% and −0.8% and −2.0%
same,Hemolysis rate,[1]; 80 μg/mL,10.1% (2×) and 11.1%
same,Minimum hemolytic concentration,[1]; rabbit erythrocytes,64.0 µg/mL
same,inhibitory activity against H. pylori,Helicobacter pylori,approximately 100%
same,CCL-2 mRNA level,[2],0.51 and 0.52 and 0.58
same,COX-2 mRNA level,[2],0.71 and 0.58 and 1.16
same,IL-1β mRNA level,[2],0.40 and 0.45 and 0.77
same,IL-6 mRNA level,[2],0.96 and 0.49 and 0.95
same,IL-10 mRNA level,[2],1.80 and 2.50 and 1.32
